According to patent US7390923B2, “Propionamide derivatives useful as androgen receptor modulators” (Orion Corporation, priority 2003, dated 2008):

Target: T1, androgen receptor (AR) (Rattus norvegicus, UniProt P15207)
T1 construct: Ventral prostates were obtained form rats castrated 24 h prior to sacrifice; from tissue; host or cells: rat ventral prostate cytosol (castrated rats, charcoal-treated)
T1 sequence (P15207 1-902): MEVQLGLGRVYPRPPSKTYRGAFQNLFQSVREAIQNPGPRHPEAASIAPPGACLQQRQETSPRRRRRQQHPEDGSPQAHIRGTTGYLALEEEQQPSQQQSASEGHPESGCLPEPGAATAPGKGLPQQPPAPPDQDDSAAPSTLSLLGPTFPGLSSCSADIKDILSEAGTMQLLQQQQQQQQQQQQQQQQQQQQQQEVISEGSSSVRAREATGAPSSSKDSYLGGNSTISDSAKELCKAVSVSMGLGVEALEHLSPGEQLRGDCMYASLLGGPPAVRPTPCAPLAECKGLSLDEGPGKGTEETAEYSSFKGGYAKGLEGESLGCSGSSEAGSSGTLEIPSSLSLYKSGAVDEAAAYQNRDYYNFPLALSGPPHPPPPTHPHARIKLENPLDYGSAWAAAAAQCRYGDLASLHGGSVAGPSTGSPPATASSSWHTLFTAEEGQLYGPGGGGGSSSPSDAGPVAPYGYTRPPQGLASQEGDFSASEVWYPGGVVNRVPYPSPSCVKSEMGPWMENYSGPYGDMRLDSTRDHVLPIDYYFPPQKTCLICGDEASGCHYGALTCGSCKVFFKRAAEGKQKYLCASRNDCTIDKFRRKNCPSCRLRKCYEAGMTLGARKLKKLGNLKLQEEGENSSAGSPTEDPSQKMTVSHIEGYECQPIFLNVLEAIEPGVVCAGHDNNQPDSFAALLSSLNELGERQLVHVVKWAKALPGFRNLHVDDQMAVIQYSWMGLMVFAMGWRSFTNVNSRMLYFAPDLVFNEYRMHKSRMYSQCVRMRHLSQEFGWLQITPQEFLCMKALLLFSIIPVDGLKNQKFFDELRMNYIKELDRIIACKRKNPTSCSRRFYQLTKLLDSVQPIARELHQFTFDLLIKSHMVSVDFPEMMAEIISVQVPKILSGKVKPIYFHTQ
Assay: AR binding assay, competition with [3H]-mibolerone binding in rat ventral prostate cytosol
Conditions: 1 nM [3H]-mibolerone, overnight at 0° C.; for inhibition at 0.2 µM: test compound 0.2 μM; for inhibition at 2 µM: test compound 2.0 μM
Experimental: Ventral prostates were obtained form rats castrated 24 h prior to sacrifice. Fresh prostate was minced and washed with Buffer A (Schilling and Liao, Prostate, 5:581-588, 1984). The minces were then homogenized in 3× volume of Buffer A containing protease inhibitors (Complete, Mini, EDTA-free Roche). The homogenate was centrifuged at 30000 g for 30 min. The resultant supernatants were treated with 1×volume of dextran-coated charcoal solution (12.5 g activated charcoal, 12.5 g dextran per liter of buffer A) to remove endogenous steroids. The samples were incubated for 5 min and centrifuged at 16000 g for 10 min. Aliquots of the charcoal-treated cytosol were taken for androgen receptor assays. All procedures were carried out at 0-4° C.
Cytosol androgen receptor concentration was determined as described (Isomaa et al., Endocrinology, 111: 833-843, 1982) with minor modifications. Cytosol preparations were prepared as described above, and bound and free steroids were separated by treatment with an equal volume of dextran-charcoal suspension for 5 min at 4° C. followed by centrifugation at 16000 g for 10 min. Bound radioactivity was determined by counting supernatant fractions in 1 ml of OptiPhase HiSafe3 or OptiPhase Supermix (PerkinElmer).
Cytosol preparations were labelled with 1 nM [^3H]-mibolerone overnight at 0° C. (total). To determine AR binding activity of the compounds of the present invention (test compounds), the ability of test compounds to compete with [^3H]7α,17α-dimethyl-17β-hydroxy-4-estren-3-one ([^3H]-mibolerone) binding was studied. 1 nM [^3H]-mibolerone and test compounds in two concentrations (0.2 and 2 uM) were incubated overnight at 0° C. To determine non-specific binding, parallel incubations were carried out using 1 nM concentration [^3H]-mibolerone with 500-fold molar excess of unlabelled testosterone. Two to four replicates were used for each sample. After incubation, bound and free steroids were separated as described above and bound radioactivity was determined. The ability of the test compounds to bind AR is reported as reduction in bound radioactivity obtained with 1 nM [^3H]-mibolerone. The results (% inhibition) were calculated as: % inhibition=100−(100×(averagetest compound/averagetotal)).

Question: Which inhibition at 0.2 µM does the source give for `CC(=O)Nc1ccc(OCC(C)(O)C(=O)Nc2ccc([N+](=O)[O-])c(C)c2)cc1` (stereo not shown) [Example 1, 3-(4-Acetylaminophenoxy)-2-hydroxy-2-methyl-N-(3-methyl-4-nitrophenyl)propionamide] here?
Answer: 91%

Question: And the inhibition at 2 µM?
Answer: 101%

Question: With `CC(=O)Nc1ccc(OCC(C)(O)C(=O)Nc2ccc([N+](=O)[O-])c(C)c2)cc1F` (stereo not shown) [Example 2, 3-(4-Acetylamino-3-fluorophenoxy)-2-hydroxy-2-methyl-N-(3-methyl-4-nitrophenyl)propionamide] as the compound, how does the inhibition at 0.2 µM read?
Answer: 93%

Question: And the inhibition at 2 µM?
Answer: 100%

Question: `CC(=O)Nc1ccc(OC[C@](C)(O)C(=O)Nc2ccc([N+](=O)[O-])c(C)c2)cc1F` [Example 4, (2S)-3-(4-Acetylamino-3-fluorophenoxy)-2-hydroxy-2-methyl-N-(3-methyl-4-nitrophenyl)propionamide] was tested. Which inhibition at 0.2 µM did it give?
Answer: 90%

Question: What about the inhibition at 2 µM of the same compound?
Answer: 88%

Question: How did the inhibition at 0.2 µM turn out when `Cc1cc(NC(=O)C(C)(O)COc2ccc(C(N)=O)cc2)ccc1[N+](=O)[O-]` (stereo not shown) [Example 5, 4-[2-Hydroxy-2-(3-methyl-4-nitrophenylcarbamoyl)propoxy]benzamide] was run?
Answer: 25%

Question: And the inhibition at 2 µM?
Answer: 74%

Question: Which inhibition at 0.2 µM does the source give for `Cc1cc(NC(=O)C(C)(O)COc2ccc(Cl)c(Cl)c2)ccc1[N+](=O)[O-]` (stereo not shown) [Example 6, 3-(3,4-Dichlorophenoxy)-2-hydroxy-2-methyl-N-(3-methyl-4-nitrophenyl)propionamide] here?
Answer: 68%

Question: And the inhibition at 2 µM?
Answer: 95%

Question: Which results are given for `CCOC(=O)c1ccc(OCC(C)(O)C(=O)Nc2ccc([N+](=O)[O-])c(C)c2)cc1` (stereo not shown) [Example 7, 4-[2-Hydroxy-2-(3-methyl-4-nitrophenylcarbamoyl)propoxy]benzoic acid ethyl ester]?
Answer: inhibition at 0.2 µM: 74%; inhibition at 2 µM: 98%

Question: For `Cc1cc(NC(=O)C(C)(O)COc2ccc(F)c(Cl)c2)ccc1[N+](=O)[O-]` (stereo not shown) [Example 8, 3-(3-Chloro-4-fluorophenoxy)-2-hydroxy-2-methyl-N-(3-methyl-4-nitrophenyl)propionamide], which inhibition at 0.2 µM is on record?
Answer: 93%

Question: What about the inhibition at 2 µM of the same compound?
Answer: 109%

Question: How did the inhibition at 0.2 µM turn out when `Cc1cc(NC(=O)C(C)(O)COc2ccc(OC(F)(F)F)cc2)ccc1[N+](=O)[O-]` (stereo not shown) [Example 9, 2-Hydroxy-2-methyl-N-(3-methyl-4-nitrophenyl)-3-(4-trifluoromethoxyphenoxy)propionamide] was run?
Answer: 41%

Question: And the inhibition at 2 µM?
Answer: 102%

Question: What does the source list for `Cc1cc(NC(=O)C(C)(O)COc2cccc(Cl)c2Cl)ccc1[N+](=O)[O-]` (stereo not shown) [Example 10, 3-(2,3-Dichlorophenoxy)-2-hydroxy-2-methyl-N-(3-methyl-4-nitrophenyl)propionamide]?
Answer: inhibition at 0.2 µM: 5%; inhibition at 2 µM: 83%

Question: Which inhibition at 0.2 µM does the source give for `Cc1cc(NC(=O)C(C)(O)COc2ccc(F)cc2)ccc1[N+](=O)[O-]` (stereo not shown) [Example 11, 3-(4-Fluorophenoxy)-2-hydroxy-2-methyl-N-(3-methyl-4-nitrophenyl)propionamide] here?
Answer: 98%

Question: What about the inhibition at 2 µM of the same compound?
Answer: 105%

Question: What does the source list for `Cc1ccc(OCC(C)(O)C(=O)Nc2ccc([N+](=O)[O-])c(C)c2)cc1` (stereo not shown) [Example 12, 2-Hydroxy-2-methyl-N-(3-methyl-4-nitrophenyl)-3-p-tolyloxypropionamide]?
Answer: inhibition at 0.2 µM: 77%; inhibition at 2 µM: 101%

Question: What does the source list for `Cc1cc(NC(=O)C(C)(O)COc2ccc(NC(=O)C(F)(F)F)cc2)ccc1[N+](=O)[O-]` (stereo not shown) [Example 13, 2-Hydroxy-2-methyl-N-(3-methyl-4-nitrophenyl)-3-[4-(2,2,2-trifluoroacetylamino)phenoxy]propionamide]?
Answer: inhibition at 0.2 µM: 77%; inhibition at 2 µM: 90%

Question: What does the source list for `Cc1cc(NC(=O)C(C)(O)COc2ccccc2)ccc1[N+](=O)[O-]` (stereo not shown) [Example 14, 2-Hydroxy-2-methyl-N-(3-methyl-4-nitrophenyl)-3-phenoxypropionamide]?
Answer: inhibition at 0.2 µM: 75%; inhibition at 2 µM: 95%

Question: Which results are given for `Cc1cc(NC(=O)C(C)(O)COc2ccc(C(F)(F)F)cc2)ccc1[N+](=O)[O-]` (stereo not shown) [Example 15, 2-Hydroxy-2-methyl-N-(3-methyl-4-nitrophenyl)-3-(4-trifluoromethylphenoxy)propionamide]?
Answer: inhibition at 0.2 µM: 46%; inhibition at 2 µM: 77%
